In the supplement of paper PMC10307832:

What was measured:
Assay in all cases: relative viability (nuclei count vs DMSO), 5 days (fraction); higher = more cells survive
VX-11e + Luminespib = compound: CC1=CN=C(N=C1C2=CNC(=C2)C(=O)N[C@H](CO)C3=CC(=CC=C3)Cl)NC4=C(C=C(C=C4)F)Cl [VX-11e] + CCNC(=O)c1noc(-c2cc(C(C)C)c(O)cc2O)c1-c1ccc(CN2CCOCC2)cc1 [Luminespib] (partner 0.01 µM)
How it was run: (§1)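 Lung cancer cell lines were pin-tool dosed in 1536-well plates on the day after seeding, with either a lone drug or a fixed anchor-drug dose plus five library-drug doses (not always all listed) in √10 steps. Nuclei were counted on 4× images after 5 days. Relative viability is the ratio of treated-well to vehicle-well nuclei counts, with each value a median of duplicate plates.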

VX-11e + Tozasertib = compound: CC1=CN=C(N=C1C2=CNC(=C2)C(=O)N[C@H](CO)C3=CC(=CC=C3)Cl)NC4=C(C=C(C=C4)F)Cl [VX-11e] + Cc1cc(Nc2cc(N3CCN(C)CC3)nc(Sc3ccc(NC(=O)C4CC4)cc3)n2)n[nH]1 [Tozasertib] (partner 0.1 µM)
How it was run: as §1

VX-11e + Alpelisib = compound: CC1=CN=C(N=C1C2=CNC(=C2)C(=O)N[C@H](CO)C3=CC(=CC=C3)Cl)NC4=C(C=C(C=C4)F)Cl [VX-11e] + Cc1nc(NC(=O)N2CCC[C@H]2C(N)=O)sc1-c1ccnc(C(C)(C)C(F)(F)F)c1 [Alpelisib] (partner 2 µM)
How it was run: as §1

VX-11e + Dasatinib = compound: CC1=CN=C(N=C1C2=CNC(=C2)C(=O)N[C@H](CO)C3=CC(=CC=C3)Cl)NC4=C(C=C(C=C4)F)Cl [VX-11e] + Cc1nc(Nc2ncc(C(=O)Nc3c(C)cccc3Cl)s2)cc(N2CCN(CCO)CC2)n1 [Dasatinib] (partner 0.075 µM)
How it was run: as §1

Cell Line | relative viability (VX-11e + Luminespib; first compound 0.04 µM) | relative viability (VX-11e + Luminespib; first compound 0.1265 µM) | relative viability (VX-11e + Luminespib; first compound 0.4 µM) | relative viability (VX-11e + Luminespib; first compound 1.265 µM) | relative viability (VX-11e + Luminespib; first compound 4 µM) | relative viability (VX-11e + Tozasertib; first compound 0.04 µM) | relative viability (VX-11e + Tozasertib; first compound 0.1265 µM) | relative viability (VX-11e + Tozasertib; first compound 0.4 µM) | relative viability (VX-11e + Tozasertib; first compound 1.265 µM) | relative viability (VX-11e + Tozasertib; first compound 4 µM) | relative viability (VX-11e + Alpelisib; first compound 0.04 µM) | relative viability (VX-11e + Alpelisib; first compound 0.1265 µM) | relative viability (VX-11e + Alpelisib; first compound 0.4 µM) | relative viability (VX-11e + Alpelisib; first compound 1.265 µM) | relative viability (VX-11e + Alpelisib; first compound 4 µM) | relative viability (VX-11e + Dasatinib; first compound 0.04 µM) | relative viability (VX-11e + Dasatinib; first compound 0.1265 µM) | relative viability (VX-11e + Dasatinib; first compound 0.4 µM) | relative viability (VX-11e + Dasatinib; first compound 1.265 µM) | relative viability (VX-11e + Dasatinib; first compound 4 µM)
NCI-H1734 | 0.203 | 0.21 | 0.269 | 0.205 | 0.163 | 0.289 | 0.209 | 0.234 | 0.23 | 0.192 | 0.689 | 0.691 | 0.648 | 0.674 | 0.41 | 0.418 | 0.396 | 0.536 | 0.415 | 0.256
NCI-H1755 | 0.3 | 0.42 | 0.479 | 0.466 | 0.324 | 0.59 | 0.487 | 0.513 | 0.527 | 0.402 | 0.962 | 0.885 | 0.882 | 0.931 | 0.497 | 0.444 | 0.392 | 0.413 | 0.398 | 0.298
NCI-H1793 | 0.178 | 0.177 | – | 0.275 | 0.15 | 0.345 | 0.293 | – | 0.228 | 0.133 | – | 0.519 | – | 0.539 | 0.301 | 0.197 | 0.292 | – | 0.326 | 0.287
NCI-H1915 | 0.821 | 0.737 | 0.851 | 0.773 | 0.59 | 0.42 | 0.392 | 0.401 | 0.366 | 0.295 | 1.08 | 0.973 | 1.08 | 0.978 | 0.652 | 0.288 | 0.291 | 0.25 | 0.267 | 0.217
NCI-H1944 | 0.711 | 0.708 | – | 0.571 | 0.422 | 0.224 | 0.227 | – | 0.231 | 0.171 | 0.843 | 0.809 | 0.785 | 0.557 | 0.399 | 0.203 | 0.207 | – | 0.2 | 0.154
NCI-H1975 | 0.232 | 0.199 | 0.156 | 0.283 | 0.186 | 0.695 | 0.526 | 0.228 | 0.216 | 0.124 | 0.649 | 0.639 | 0.591 | 0.508 | 0.191 | 0.373 | 0.29 | 0.195 | 0.254 | 0.171
NCI-H1993 | 1.12 | 0.918 | 0.484 | 1.02 | 0.663 | 0.626 | 0.603 | 0.639 | 0.562 | 0.514 | – | 0.673 | – | 0.618 | 0.649 | 0.442 | 0.54 | 0.523 | 1.46 | 0.504
NCI-H2009 | 1.07 | 1.03 | 1.03 | 1.08 | 0.349 | 0.714 | 0.64 | 0.591 | 0.4 | 0.171 | 1.2 | 1.1 | 1.07 | 0.571 | 0.285 | 0.307 | 0.286 | 0.242 | 0.169 | 0.122
NCI-H2023 | 0.683 | 0.791 | 0.701 | 0.6 | 0.361 | 0.279 | 0.161 | 0.161 | 0.142 | 0.0967 | 0.59 | 0.611 | 0.572 | 0.458 | 0.257 | 0.647 | 0.508 | 0.502 | 0.439 | 0.234
NCI-H2085 | 0.378 | 0.433 | 0.396 | 0.323 | 0.276 | 0.897 | 0.724 | 0.659 | 0.644 | 0.413 | 1.11 | 0.88 | 0.913 | 0.842 | 0.699 | 0.296 | 0.241 | 0.217 | 0.188 | 0.193
NCI-H2087 | 0.188 | 0.188 | – | 0.154 | 0.152 | 0.28 | 0.208 | – | 0.203 | 0.167 | 1.09 | 1.06 | 0.946 | 0.983 | 0.276 | 0.943 | 0.73 | – | 0.301 | 0.202
NCI-H2126 | 0.824 | 0.877 | – | 0.964 | 0.737 | 0.828 | 0.78 | – | 0.666 | 0.6 | – | 0.755 | 0.747 | 0.68 | 0.578 | 0.52 | 0.635 | – | 0.597 | 0.401
NCI-H2170 | 0.878 | 0.639 | 0.566 | 0.802 | 0.436 | 0.81 | 0.687 | 0.734 | 0.69 | 0.686 | 0.76 | 0.71 | 0.758 | 0.719 | 0.71 | 0.339 | 0.664 | 0.461 | 0.341 | 0.445
NCI-H2228 | 0.145 | 0.138 | – | 0.148 | 0.12 | 0.248 | 0.202 | – | 0.149 | 0.115 | 0.631 | 0.922 | 0.715 | 0.548 | 0.232 | 0.591 | 0.578 | – | 0.351 | 0.188
NCI-H2347 | 0.293 | 0.548 | 0.323 | 0.269 | 0.366 | 0.646 | 0.599 | 0.508 | 0.449 | 0.276 | 1.15 | 0.991 | 1 | 0.618 | 0.379 | 0.221 | 0.314 | 0.126 | 0.232 | 0.197
NCI-H2405 | 0.798 | 0.719 | 0.395 | 0.717 | 0.296 | 0.804 | 0.757 | 0.768 | 0.779 | 0.256 | 0.857 | 0.726 | – | 0.602 | 0.209 | 0.204 | 0.186 | 0.15 | 0.151 | 0.128
NCI-H3122 | 0.0662 | 0.0869 | – | 0.0911 | 0.0987 | 0.452 | 0.413 | – | 0.23 | 0.173 | 0.652 | 0.753 | 0.566 | 0.672 | 0.329 | 0.7 | 0.637 | – | 0.476 | 0.224
